# “And” between values parts separate entries of the source, which are not always exact repeats. Equal entries are not always repeated.
# System: K98450-129-R-PDC complex spheroid growth, percent test/control
# Experiment: Anticancer human tumor K98450-129-R-PDC patient-derived colon adenocarcinoma cell line growth inhibition [RAS]
# Conditions: for viability, T/C: stronger effect = lower value
# Procedure, shortened: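 Tumour cells grown as complex spheroids with HUVEC endothelial cells and mesenchymal stem cells, treated with RAS pathway inhibitor combinations. Each agent spans half-log steps from near clinical Cmax, or 10 microM where Cmax is unknown.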
# [1] = curve of first compound, second compound 0.00316 µM
# [2] = curve of first compound, second compound 0.01 µM
# [3] = curve of first compound, second compound 0.0316 µM
# [4] = curve of first compound, second compound 0.1 µM
# [5] = curve of first compound, second compound 0.316 µM
# [6] = curve of first compound, second compound 1 µM
# 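Note: spheroids exposed to agents for seven days before the viability readout.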
# 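Throughout, for viability, T/C: luminescence used as a proxy for viable cell amount.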
structure (smiles),measurement,setting,value
Nc1ccn(C2OC(CO)C(O)C2(F)F)c(=O)n1 (stereo not given) + C=CC(=O)N1CCN(c2nc(OCC3CCCN3C)nc3c(F)c(-c4nc(N)cc(C)c4C(F)(F)F)c(Cl)cc23)C(C)C1,IC50,[1],0.0579 µM
same,IC50,[2],0.0337 µM
same,IC50,[3],0.0153 µM
same,IC50,[4],0.00571 µM
same,IC50,[5],< 0.00316 µM
same,IC50,[6],< 0.00316 µM
same,"viability, T/C","second compound 0.00316 µM, first compound 0.00316 µM",91.3%
same,"viability, T/C","second compound 0.00316 µM, first compound 0.01 µM",86.3%
same,"viability, T/C","second compound 0.00316 µM, first compound 0.0316 µM",59.6%
same,"viability, T/C","second compound 0.00316 µM, first compound 0.1 µM",40.5%
same,"viability, T/C","second compound 0.00316 µM, first compound 0.316 µM",31.7%
same,"viability, T/C","second compound 0.00316 µM, first compound 1 µM",25.8%
same,"viability, T/C","second compound 0.01 µM, first compound 0.00316 µM",91%
same,"viability, T/C","second compound 0.01 µM, first compound 0.01 µM",76.8%
same,"viability, T/C","second compound 0.01 µM, first compound 0.0316 µM",49.1%
same,"viability, T/C","second compound 0.01 µM, first compound 0.1 µM",34.8%
same,"viability, T/C","second compound 0.01 µM, first compound 0.316 µM",28.5%
same,"viability, T/C","second compound 0.01 µM, first compound 1 µM",22.8%
same,"viability, T/C","second compound 0.0316 µM, first compound 0.00316 µM",68.4%
same,"viability, T/C","second compound 0.0316 µM, first compound 0.01 µM",59.5%
same,"viability, T/C","second compound 0.0316 µM, first compound 0.0316 µM",34.1%
same,"viability, T/C","second compound 0.0316 µM, first compound 0.1 µM",22.6%
same,"viability, T/C","second compound 0.0316 µM, first compound 0.316 µM",18.5%
same,"viability, T/C","second compound 0.0316 µM, first compound 1 µM",16.3%
same,"viability, T/C","second compound 0.1 µM, first compound 0.00316 µM",57.5%
same,"viability, T/C","second compound 0.1 µM, first compound 0.01 µM",43%
same,"viability, T/C","second compound 0.1 µM, first compound 0.0316 µM",24.4%
same,"viability, T/C","second compound 0.1 µM, first compound 0.1 µM",17.7%
same,"viability, T/C","second compound 0.1 µM, first compound 0.316 µM",15.2%
same,"viability, T/C","second compound 0.1 µM, first compound 1 µM",14.7%
same,"viability, T/C","second compound 0.316 µM, first compound 0.00316 µM",41.5%
same,"viability, T/C","second compound 0.316 µM, first compound 0.01 µM",38.6%
same,"viability, T/C","second compound 0.316 µM, first compound 0.0316 µM",21.8%
same,"viability, T/C","second compound 0.316 µM, first compound 0.1 µM",16.4%
same,"viability, T/C","second compound 0.316 µM, first compound 0.316 µM",14.2%
same,"viability, T/C","second compound 0.316 µM, first compound 1 µM",12.8%
same,"viability, T/C","second compound 1 µM, first compound 0.00316 µM",36.2%
same,"viability, T/C","second compound 1 µM, first compound 0.01 µM",25.1%
same,"viability, T/C","second compound 1 µM, first compound 0.0316 µM",18.8%
same,"viability, T/C","second compound 1 µM, first compound 0.1 µM",16.9%
same,"viability, T/C","second compound 1 µM, first compound 0.316 µM",14.3%
same,"viability, T/C","second compound 1 µM, first compound 1 µM",14.4%
CCc1c2c(nc3ccc(O)cc13)-c1cc3c(c(=O)n1C2)COC(=O)[C@]3(O)CC + C=CC(=O)N1CCN(c2nc(OCC3CCCN3C)nc3c(F)c(-c4nc(N)cc(C)c4C(F)(F)F)c(Cl)cc23)C(C)C1,IC50,[1],0.0281 µM
same,IC50,[2],0.0166 µM
same,IC50,[3],0.007 µM
same,IC50,[4],0.00326 µM
same,IC50,[5],< 0.000949 µM
same,IC50,[6],< 0.000949 µM
same,"viability, T/C","second compound 0.00316 µM, first compound 0.000949 µM",93.5%
same,"viability, T/C","second compound 0.00316 µM, first compound 0.003 µM",87.7%
same,"viability, T/C","second compound 0.00316 µM, first compound 0.00949 µM",68.1%
same,"viability, T/C","second compound 0.00316 µM, first compound 0.03 µM",49.7%
same,"viability, T/C","second compound 0.00316 µM, first compound 0.0949 µM",34.1%
same,"viability, T/C","second compound 0.00316 µM, first compound 0.3 µM",27.6%
same,"viability, T/C","second compound 0.01 µM, first compound 0.000949 µM",86.7%
same,"viability, T/C","second compound 0.01 µM, first compound 0.003 µM",76.1%
same,"viability, T/C","second compound 0.01 µM, first compound 0.00949 µM",60.6%
same,"viability, T/C","second compound 0.01 µM, first compound 0.03 µM",39.1%
same,"viability, T/C","second compound 0.01 µM, first compound 0.0949 µM",29.2%
same,"viability, T/C","second compound 0.01 µM, first compound 0.3 µM",23.6%
same,"viability, T/C","second compound 0.0316 µM, first compound 0.000949 µM",74.5%
same,"viability, T/C","second compound 0.0316 µM, first compound 0.003 µM",63.8%
same,"viability, T/C","second compound 0.0316 µM, first compound 0.00949 µM",46.1%
same,"viability, T/C","second compound 0.0316 µM, first compound 0.03 µM",24.1%
same,"viability, T/C","second compound 0.0316 µM, first compound 0.0949 µM",20.6%
same,"viability, T/C","second compound 0.0316 µM, first compound 0.3 µM",18%
same,"viability, T/C","second compound 0.1 µM, first compound 0.000949 µM",54.6%
same,"viability, T/C","second compound 0.1 µM, first compound 0.003 µM",53.3%
same,"viability, T/C","second compound 0.1 µM, first compound 0.00949 µM",33%
same,"viability, T/C","second compound 0.1 µM, first compound 0.03 µM",20.3%
same,"viability, T/C","second compound 0.1 µM, first compound 0.0949 µM",16.7%
same,"viability, T/C","second compound 0.1 µM, first compound 0.3 µM",11.7%
same,"viability, T/C","second compound 0.316 µM, first compound 0.000949 µM",38.1%
same,"viability, T/C","second compound 0.316 µM, first compound 0.003 µM",35.4%
same,"viability, T/C","second compound 0.316 µM, first compound 0.00949 µM",25.4%
same,"viability, T/C","second compound 0.316 µM, first compound 0.03 µM",16.6%
same,"viability, T/C","second compound 0.316 µM, first compound 0.0949 µM",15%
same,"viability, T/C","second compound 0.316 µM, first compound 0.3 µM",9.83%
same,"viability, T/C","second compound 1 µM, first compound 0.000949 µM",31.7%
same,"viability, T/C","second compound 1 µM, first compound 0.003 µM",30.3%
same,"viability, T/C","second compound 1 µM, first compound 0.00949 µM",23.6%
same,"viability, T/C","second compound 1 µM, first compound 0.03 µM",18.9%
same,"viability, T/C","second compound 1 µM, first compound 0.0949 µM",14.1%
same,"viability, T/C","second compound 1 µM, first compound 0.3 µM",8.49%
CCc1c2c(nc3ccc(O)cc13)-c1cc3c(c(=O)n1C2)COC(=O)[C@]3(O)CC,"viability, T/C",compound 0.000949 µM,104% [middle of 4 runs]
same,"viability, T/C",compound 0.003 µM,97.8% [middle of 4 runs]
same,"viability, T/C",compound 0.00949 µM,92.5% [middle of 4 runs]
same,"viability, T/C",compound 0.03 µM,69% [middle of 4 runs]
same,"viability, T/C",compound 0.3 µM,49.5% [middle of 4 runs]
same,IC50,curve of compound,0.0489 µM and > 0.3 µM and 0.0431 µM
